The assay has as its system CEM cells HIV-1 protection, formazan growth assay. Nature of the assay: NCI AIDS Antiviral Assay. The following applies: for pIC50: measured here: growth of uninfected CEM cells. The protocol:
The ability of compounds to protect human CEM cells from HIV-1 infection is measured as a screen for new compounds capable of inhibiting the HIV virus. Five concentrations of drug were tested on uninfected and infected cells and cell growth was measured using a soluble formazan assay. […] Compounds that provided at least 50% protection were retested. Compounds that provided at least 50% protection on retest were listed as moderately active. Compounds that reproducibly provided 100% protection were listed as confirmed active. […] Note that the inability to provide protection could be due to toxicity.

pEC50, pIC50: −log10 of the molar value. Values joined by “and” are separate entries in the source; they are usually repeats but may differ in a detail not shown here. Identical values can stand only once. Active and inactive are the calls of the source.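 Rule for the calls: active = compounds giving half or more protection of infected cells from virus-caused growth loss, again on retest; inactive = the rest.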

We go through 67 compounds from PubChem BioAssay AID179 (DTP/NCI, 2004).

Take `CCN(CC)C(C(=O)Nc1c(C)cccc1C)N(CC)CC`: the pEC50 was less than 3.70 and the negative-log IC50 (pIC50) is less than 3.70.

As for `COc1ccc2c(c1)-c1c(c3ccccc3n1CCN1CCOCC1)CC2`, the result was inactive.

As to `CC1=NN(c2cccc(S(=O)(=O)O)c2)C(=O)C1N=Nc1cc(Cl)cc(S(=O)(=O)O)c1O.O.[Cr]` (configuration not stated), the pEC50 is 4.05 and the negative-log IC50 (pIC50) was less than 4.00.

Consider `CCOC(OCC)c1ccc(-n2c(N)c(C#N)cnc2=S)c2c1OC2=NC=C(C#N)C#N`, for which the pEC50 is less than 3.82 and the negative-log IC50 (pIC50) was less than 3.82.

With `CN(/N=C/c1cccs1)c1ccc(Cl)cc1[N+](=O)[O-]`, the pEC50 was less than 3.70 and the negative-log IC50 (pIC50) is 4.22.

For the compound `COC1OC(CO)C(O)C(OC(C)=O)C1NC(=O)N(CCCl)N=O` (configuration not stated), the pEC50 was less than 3.17 and the pIC50 is 3.38.

With `O=C1NC(=O)/C(=C/c2ccc(S(=O)(=O)N/N=C\C(O)C(O)C(O)CO)cc2)N1` (configuration not stated), the pEC50 was less than 3.70; the pIC50 was 3.87 and 3.72.

On to `CCOC(=O)CCNC(=O)c1ccccc1SC(=O)CCCC[n+]1ccccc1`, for which the pEC50 is less than 5.70 and the pIC50 was 5.82.

`COC(=O)C1CN=CN1CCc1ccccc1` (configuration not stated): the pEC50 is less than 3.70 and the pIC50 is less than 3.70.

On to `CCCCCCCCCCCCCCCCOP(=O)(O)Oc1ccc(/C=C\c2ccc(OP(=O)(O)OCCCCCCCCCCCCCCCC)cc2)cc1`, for which the outcome was inactive.

As to `Clc1ccc(-n2nnc(C3=NCCCN3)c2-c2ccccc2)cc1`, the pEC50 is 3.89 and the pIC50 is 3.83.

Turning to `CC(=O)OC1(C#N)CC2OC1C1C2N1C(=O)c1ccccc1` (configuration not stated), the pEC50 is less than 3.50 and the pIC50 was less than 3.50.

As for `CCOC(=O)c1ncn2c1[nH]c(=S)c1ccccc12`, the pEC50 is less than 4.58 and the pIC50 is less than 4.58.

For the compound `O=C1C2c3[nH]c4ccccc4c3C3CCCCCC3C2C(=O)N1c1ccccc1` (configuration not stated), the outcome was inactive.

For the compound `Nc1nc(N)c2cc(Cl)ccc2n1`, the pEC50 is less than 2.89 and the negative logarithm of the IC50 (pIC50) is 4.57.

For the compound `CCCC(=O)NC1Cc2cc(C)cc(C)c21` (configuration not stated), the pEC50 is less than 4.34 and the pIC50 is less than 4.34.

Regarding `CCc1nc(N)nc(N)c1-c1ccc(Cl)cc1`, the pEC50 is less than 6.00 and the negative logarithm of the IC50 (pIC50) was 7.43.

`CCCCCCC(=O)C(O)C(O)C(=O)CCCCCCCC(=O)O` (configuration not stated): the pEC50 was less than 3.70 and the pIC50 is 4.01.

For `Nc1ccc(N=Nc2ccc(CCc3ccc(N=Nc4ccc(N)c5cc(S(=O)(=O)O)ccc45)cc3S(=O)(=O)O)c(S(=O)(=O)O)c2)c2ccc(S(=O)(=O)O)cc12`, the pEC50 is less than 3.84 and the pIC50 was 4.27.

On to `CC(=O)C(=Cc1ccc(C#N)cc1)C(C)=O`, for which the pEC50 was less than 3.77 and the pIC50 was 4.57.

For `CCOC(=O)C12CCC(=O)C=C1[C@@H](C)C(=O)CC2` (some centres not stated), the pEC50 was less than 3.00 and the pIC50 was 3.44.

As for `CCOc1cc2c(cc1O)C(O)C[C@@H]1[C@@H]2CC[C@]2(C)[C@@H](O)CC[C@@H]12` (some centres not stated), the pEC50 is less than 3.70 and the pIC50 was 7.11.

Turning to `COC(=O)c1ccccc1CC1Cc2cc3c(cc2C1)CCC3`, the pEC50 is less than 3.70 and the negative-log IC50 (pIC50) is 4.42.

Take `CC(C)C(Sc1nc(-c2ccccc2)c(-c2ccccc2)[nH]1)C(=O)N/N=C/c1ccc(Cl)cc1` (configuration not stated): the pEC50 was less than 4.13 and the pIC50 is less than 4.13.

For the compound `CCOc1csc([C@H]2CCC3[C@@H]4CC=C5C[C@@H](OC(C)=O)CC[C@]5(C)C4CC[C@@]32C)n1` (some centres not stated), the pEC50 was less than 4.25 and the pIC50 was less than 4.25.

With `O=c1cc(-c2ccc(O)cc2)oc2cc(O[C@@H]3O[C@H](CO)[C@@H](O)[C@H](O)[C@H]3O)cc(O)c12`, the pEC50 is less than 3.70 and the pIC50 is 5.34.

Take `C/C=C(/C)C(=O)O[C@H]1C[C@@H]2[C@@H](O)c3occ(C)c3C[C@]2(C)[C@@H](C)C1`: the pEC50 was less than 3.70 and the pIC50 was 4.98.

With `COC(=O)C12c3[nH]c4ccccc4c3CCN1CC(=O)C2C(=O)OCc1ccccc1` (configuration not stated), the pEC50 was less than 4.04 and the pIC50 is 4.24.

For the compound `CCOC(=O)c1c(C(F)(F)F)oc2c1ccc1nc3nonc3nc12`, the pEC50 is less than 4.27 and the pIC50 was 4.96.

In the case of `C=CCN(CC=C)C(=O)COc1cc2c(O)c3c(O)c(C)c4c(c13)C(=O)C(C)(O/C=C\C(OC)C(C)C(OC(C)=O)C(C)C(O)C(C)C(O)C(C)/C=C\C=C(\C)C(=O)N2)O4` (configuration not stated), the pEC50 was less than 3.70 and the pIC50 is 4.77.

As to `Nc1nc(Cl)c2[nH]c(Cl)nc2n1`, the pEC50 was less than 3.70 and the pIC50 is 3.88.

`Cc1nnc(Cc2ccccc2)c2n[nH]c(C)c12`: the pEC50 is less than 3.40 and the negative logarithm of the IC50 (pIC50) was 3.96.

`CC1C(=O)C(C)C(c2ccccc2)NC1c1ccccc1` (configuration not stated): the pEC50 was less than 4.17 and the pIC50 was less than 4.17.

For `O=C(/N=C/c1c(O)c2ccccc2oc1=O)Oc1ccccc1`, the pEC50 was less than 4.00 and the pIC50 was 4.48.

Take `COc1cccc(/C=C2/Sc3sc(C(C)=O)c(C)[n+]3C2=O)c1O`: the negative logarithm of the EC50 (pEC50) is less than 4.05 and the negative-log IC50 (pIC50) is 4.46.

As to `C1CCCCc2nc3c(nc2CCC1)c1nc2c(nc1c1nc4c(nc31)CCCCCCCC4)CCCCCCCC2`, the result was inactive.

Turning to `Cc1cccc(C2=NC(=C3CCCCC3)C(=O)O2)c1`, the pEC50 was less than 3.70 and the negative-log IC50 (pIC50) was 4.42.

With `CNC(=O)O/N=C(C)/C(C)=N/OC(=O)NC`, the outcome was inactive.

Turning to `O=P(Nc1ccc(Cl)cc1)(Oc1ccccc1)N(CCCl)CCCl` (configuration not stated), the pEC50 is less than 4.75 and the pIC50 was 5.06.

Turning to `COc1ccc(C(=O)C(C(=O)CCC(=O)Nc2cccc(Cl)c2)c2ccc(OC)cc2)cc1` (configuration not stated), the pEC50 is less than 4.81 and the pIC50 was less than 4.81.

On to `COc1ccc(C(=O)Cn2c(C(C)=O)nc3ccccc32)cc1`, for which the pEC50 was less than 3.70 and the negative-log IC50 (pIC50) is 5.61.

Consider `Cc1cc[n+]2cc(-c3ccc(/C=N/N=C(N)N)cc3)n(C)c2c1`, for which the pEC50 was 4.28 and the negative-log IC50 (pIC50) was 4.26.

For `O[C@@H]1CO[C@H]2[C@@H]1OC[C@@H]2O`, the pEC50 was less than 3.70 and the pIC50 is less than 3.70.

Regarding `CN1C(=O)C23SSC1(C)C(=O)N2c1ccccc1C3(C)C` (configuration not stated), the pEC50 was less than 3.70 and the pIC50 was 5.10.

With `O=C1C=C(c2c(O)ccc3ccccc23)c2cc(O)ccc2C1=O`, the pEC50 was less than 3.95 and the pIC50 is 5.18.

For the compound `CC(C)(/C=N/O)/[N+]([O-])=C/c1ccccc1`, the pEC50 was less than 3.70 and the pIC50 was less than 3.70.

With `NC(=Nc1nc(-c2ccccn2)cc2ccccc12)c1ccccn1`, the pEC50 was less than 4.65 and the pIC50 was 7.07.

`Nc1ccc(S(N)(=O)=O)cc1SSc1cc(S(N)(=O)=O)ccc1N`: the pEC50 is 4.26 and the pIC50 was 3.88.

`O=C1C=CC(=O)c2c(O)ccc(O)c21`: the pEC50 is less than 3.70 and the pIC50 is 5.41.

For `CC1=C2C(=O)C(C)(C)C=C2C(=O)[C@](C)(O)C12CC2`, the outcome was inactive.

Consider `COc1cc(OC)nc(-n2c(N)c(C#N)c3ccc([N+](=O)[O-])cc3c2=O)n1`, for which the pEC50 was less than 3.70 and the negative logarithm of the IC50 (pIC50) was less than 3.70.

As for `Cc1cn(C2CC3OP(=O)(OCc4ccccc4)OCC3O2)c(=O)[nH]c1=O` (configuration not stated), the pEC50 was less than 5.44 and the pIC50 is less than 5.44.

For the compound `Nc1nc(NCC2(CO)CCC2)cc(=O)[nH]1`, the pEC50 is less than 3.70 and the negative logarithm of the IC50 (pIC50) was less than 3.70.

As to `Nc1ncnc2oc(C3OC(COC(=O)c4ccccc4)C(OC(=O)c4ccccc4)C3OC(=O)c3ccccc3)nc12` (configuration not stated), the pEC50 was less than 3.70 and the pIC50 is 3.83.

With `C[n+]1c2ccccc2c(/C=N\NS(=O)(=O)c2ccc(O)c(C(=O)O)c2)c2ccccc21`, the result was inactive.

On to `CC(C)(C)OC(=O)N1N=NC2C3CC(=O)C(O3)C21` (configuration not stated), for which the pEC50 was less than 3.01 and the pIC50 is 4.96.

For `Cn1cc(NC(=O)Nc2cc(C(=O)Nc3cc(C(=O)Nc4cc(C(=O)Nc5ccc(P(=O)(O)O)c6cc(P(=O)(O)O)ccc56)n(C)c4)n(C)c3)n(C)c2)cc1C(=O)Nc1cc(C(=O)Nc2cc(C(=O)Nc3ccc(P(=O)(O)O)c4cc(P(=O)(O)O)ccc34)n(C)c2)n(C)c1`, the pEC50 was 5.89 and the pIC50 is 4.43.

For the compound `COc1ccc(/C(=N/O)c2ccccc2C2=Nc3ccccc3C(NCc3ccccc3)O2)cc1C` (configuration not stated), the pEC50 is less than 3.70 and the pIC50 was 4.65.

Turning to `CS(=O)(=O)Nc1ccc2c(c1)N(S(C)(=O)=O)CC2COS(C)(=O)=O` (configuration not stated), the pEC50 was less than 3.70 and the negative logarithm of the IC50 (pIC50) is 4.39.

As to `O=c1[nH]c(=O)n(COCCOCc2ccccc2)cc1Nc1ccccc1`, the pEC50 was less than 3.70 and the negative logarithm of the IC50 (pIC50) is 4.25.

For `CC1=C(c2nc3ccccc3s2)C(=O)OC1(C)C`, the pEC50 was less than 3.74 and the negative logarithm of the IC50 (pIC50) was 3.91.

For `CC1=NN(C(=O)Cc2ccccc2)C(=O)/C1=C\C=C\c1ccccc1`, the pEC50 was less than 4.24 and the pIC50 was less than 4.24.

As for `CCCCCCCCCCCCCCCCOC1N(C2CC(N=[N+]=[N-])C(CO)O2)C(=O)NC(=O)[C@]1(C)Cl` (some centres not stated), the pEC50 was less than 3.70 and the negative logarithm of the IC50 (pIC50) is 4.50.

`C=C(C)[C@@H]1CC[C@]2(C)CC[C@@]3(C)[C@]4(C)CC[C@H]5C(C)(C)[C@@H](OC(=O)CCC(=O)O)CC[C@]5(C)[C@H]4CC[C@]3(C)[C@@H]12`: the negative logarithm of the EC50 (pEC50) is 4.35 and the negative logarithm of the IC50 (pIC50) is less than 4.00.

Consider `CC(C)(C)C1CCC2c3c([nH]c4ccccc34)C3C(=O)N(c4cc(Br)cc(Br)c4)C(=O)C3C2C1` (configuration not stated), for which the pEC50 is less than 3.70 and the pIC50 was 4.90.

Regarding `O=C(CC1(O)C(=O)Nc2c(Cl)cc(Cl)cc21)c1ccc(Br)cc1` (configuration not stated), the pEC50 was less than 4.57 and the negative logarithm of the IC50 (pIC50) was 4.80.

As to `CCOC(=O)N1CCC2(CC1)CC(=O)N(Nc1ccccc1)C2=O`, the pEC50 was less than 3.70 and the negative logarithm of the IC50 (pIC50) is 4.44.

Broadly, the pEC50 is −log10 of the EC50, conventionally taken in molar units. The pIC50 is the negative decadic logarithm of the IC50, by convention in mol/L. Higher therefore signals a small IC50.
